Data from paper PMC12226733, “Evolution of iGluR ligand specificity, polyamine regulation, and ion selectivity inferred from a placozoan epsilon receptor” (Communications Biology, 2025).
“And” between values parts separate entries of the source, which are not always exact repeats. Identical values can stand only once.

Legend:
GluA2(Q) wt = biological target: T1, GluA2(Q) wt (Homo sapiens, UniProt P42262); assay: outside-out patch clamp, block by intracellular spermine, HEK-293T/17 cells; format: biochemical; conditions: for Normalized conductance (Gnorm) GluA2 wild type / Normalized current (Inorm) GluA2 wild type: single recordings and AVG;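 as to Normalized current (Inorm) GluA2 wild type: current normalized to the maximum current response at −100 mV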
T1 construct: host or cells: HEK-293T/17
T1 sequence (P42262 25-883): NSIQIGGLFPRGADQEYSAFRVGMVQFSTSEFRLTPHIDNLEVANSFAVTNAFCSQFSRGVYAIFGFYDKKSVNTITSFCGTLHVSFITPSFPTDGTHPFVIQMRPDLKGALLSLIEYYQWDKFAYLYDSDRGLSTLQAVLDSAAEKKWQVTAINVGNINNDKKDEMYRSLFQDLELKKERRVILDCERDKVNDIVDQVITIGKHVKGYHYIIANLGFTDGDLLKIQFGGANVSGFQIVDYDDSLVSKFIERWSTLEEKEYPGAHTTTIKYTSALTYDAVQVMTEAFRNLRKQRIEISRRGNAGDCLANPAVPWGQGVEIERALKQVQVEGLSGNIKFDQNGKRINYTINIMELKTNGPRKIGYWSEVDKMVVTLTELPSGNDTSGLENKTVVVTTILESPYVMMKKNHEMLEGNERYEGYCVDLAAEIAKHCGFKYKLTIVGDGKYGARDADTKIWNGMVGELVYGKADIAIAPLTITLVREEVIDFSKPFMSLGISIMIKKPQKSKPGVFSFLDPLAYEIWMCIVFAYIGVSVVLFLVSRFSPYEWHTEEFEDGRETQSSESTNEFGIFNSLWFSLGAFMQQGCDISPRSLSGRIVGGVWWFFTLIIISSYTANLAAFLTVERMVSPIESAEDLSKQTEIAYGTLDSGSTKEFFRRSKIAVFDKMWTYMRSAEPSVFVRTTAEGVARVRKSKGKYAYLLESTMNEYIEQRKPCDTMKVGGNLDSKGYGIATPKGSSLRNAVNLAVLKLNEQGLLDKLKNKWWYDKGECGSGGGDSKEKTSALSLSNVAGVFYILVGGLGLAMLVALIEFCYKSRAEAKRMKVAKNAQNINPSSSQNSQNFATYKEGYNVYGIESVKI
Experimental: (§1) Parallel experiments were carried out in human GluA2 homotetramers bearing equivalent Q/R/N and +4 site mutations to compare the regulation of voltage-dependent polyamine block within the broader context of mammalian receptors. Experimental design remained the same, except for using 10 mM glutamate as the agonist used to evoke membrane currents (Fig. 7a, d, g, and j). […] Their properties were accordingly compared to wildtype GluA2(Q) co-expressed with TARP-γ2.
(§2) HEK-293T/17 cells (ATCC) were maintained in MEM supplemented with GlutaMAX and 10% fetal bovine serum (FBS) at 37 °C and 5% CO2. […] Transient transfections were carried out 48 h post-plating using the calcium phosphate precipitation method. After 6–8 hours, cells were washed twice with PBS and maintained in fresh medium. Cells transfected with mammalian GluA2 cDNA (plasmid vector described above) were returned to an incubator at 37 °C for 24–48 hours and cells transfected with Epsilon GluE1αA were incubated at 28 °C for 48–72 hours. In cells co-transfected with TARP-γ2, 30 μM NBQX was included in the medium to minimize AMPAR/auxiliary-induced cytotoxicity. All constructs were co-transfected with a plasmid encoding enhanced green fluorescent protein (eGFP) to identify transfected cells. Electrophysiology responses were recorded from outside-out patches excised from transfected cells. Recording pipettes were composed of borosilicate glass (3 to 6 megaohm, King Precision Glass) coated with dental wax to reduce electrical noise. All recordings were performed using Axopatch 200B amplifier (Molecular Devices, LLC). Current records were filtered at 5 or 10 kHz and sampled at 25–50 kHz. Series resistance (3 to 12 megaohms) was compensated by 95%. Recordings were performed at a range of holding potentials from −100 mV to 100 mV to study polyamine block. Data was acquired using pClamp9 software (Molecular Devices, LLC). All experiments were performed at room temperature. All chemicals were purchased from Sigma-Aldrich, unless otherwise indicated. External solution contained (in mM): 150 NaCl, 5 HEPES, 0.1 CaCl2, 0.1 MgCl, and […], pH 7.3–7.4. […] The osmotic pressure of all solutions was adjusted to 295 to 300 mOsm with sucrose. […] Stocks were thawed on the day of the experiment and used to prepared agonist-containing external solutions. Raw data for all electrophysiology experiments are provided in Supplementary Data 3. Current-voltage (I-V) relationships were fit using Origin 7 (OriginLab) using a ninth order polynomial function to estimate the reversal potential (Vrev).
(§3) Agonist-evoked membrane conductance (G) was calculated using the following equation: G=I/(V−Vrev)
(§4) Conductance-voltage (G-V) relationships were fit using Origin 7 (OriginLab) with the single permeant blocker model as done previously[46]: G=Gmax/1+[Spm]/Kd Where Gmax is the maximal conductance, [Spm] is the internal Spm concentration, and Kd is the dissociation constant.
(§5) Kd is defined as: Kd=koff+kperm/kon=sumofexitrates/bindingrate
(§6) And redefined as: Kd=g*exp(V/h)+L*exp(V/k) Where h and k are voltage dependencies of g and L, respectively, and at 0 mV: g=koff/konandL=kperm/kon

GluA2 D611A + γ2 = biological target: T2, GluA2 D611A + γ2 (Homo sapiens, UniProt P42262, D611A); assay: as above; format: biochemical; conditions: single recordings and AVG
T2 construct: expressed in transfected cells; host or cells: HEK-293T/17
T2 sequence (P42262 25-883 D611A): as the sequence (P42262 25-883) above, with D587A counted along it
T2 sequence (Q9Y698 whole entry partner): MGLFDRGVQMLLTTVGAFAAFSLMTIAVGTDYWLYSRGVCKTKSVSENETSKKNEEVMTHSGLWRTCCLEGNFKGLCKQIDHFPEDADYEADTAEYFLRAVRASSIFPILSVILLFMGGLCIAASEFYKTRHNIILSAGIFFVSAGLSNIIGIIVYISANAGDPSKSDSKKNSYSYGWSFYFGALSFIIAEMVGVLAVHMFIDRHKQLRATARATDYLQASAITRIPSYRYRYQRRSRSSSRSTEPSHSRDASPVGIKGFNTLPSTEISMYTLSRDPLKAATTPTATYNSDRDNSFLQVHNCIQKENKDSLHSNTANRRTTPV
Experimental: as §1, §2, §3, §4, §5, §6

NCCCNCCCCNCCCN [spermine]
Normalized conductance (Gnorm) GluA2 wild type (GluA2(Q) wt; 10 mV): 0.13 and 0.07 and 0.09 and 0.12 and 0.14 and 0.11 | Normalized current (Inorm) GluA2 wild type (GluA2(Q) wt; 30 mV): 0.0172 | Normalized current (Inorm) GluA2 wild type (GluA2(Q) wt; 70 mV): 0.19 and 0.25 and 0.20 and 0.28 and 0.32 and 0.36 and 0.27 | Normalized conductance (Gnorm) GluA2 wild type (GluA2(Q) wt; 80 mV): 0.39 and 0.55 and 0.61 and 0.72 and 0.70 and 0.59 | Normalized current (Inorm) GluA2 wild type (GluA2(Q) wt; 80 mV): 0.31 and 0.42 and 0.39 and 0.43 and 0.54 and 0.52 and 0.44 | Normalized conductance (Gnorm) GluA2 wild type (GluA2(Q) wt; 90 mV): 0.49 and 0.69 and 0.70 and 0.77 and 0.89 and 0.81 and 0.72 | Normalized current (Inorm) GluA2 wild type (GluA2(Q) wt; 90 mV): 0.44 and 0.59 and 0.56 and 0.62 and 0.76 and 0.68 and 0.61 | Normalized conductance (Gnorm) GluA2 wild type (GluA2(Q) wt; 100 mV): 0.66 and 0.80 and 0.82 and 0.89 and 0.94 | Normalized current (Inorm) GluA2 wild type (GluA2(Q) wt; 100 mV): 0.66 and 0.77 and 0.74 and 0.80 and 0.89 | Normalized current (Inorm) GluA2 wild type (GluA2(Q) wt; -10 mV): -0.0326 | Normalized current (Inorm) GluA2 wild type (GluA2(Q) wt; -20 mV): -0.0532 | Normalized conductance (Gnorm) GluA2 wild type (GluA2(Q) wt; -40 mV): 0.53 and 0.50 and 0.49 and 0.66 and 0.63 and 0.73 and 0.59 | Normalized conductance (Gnorm) GluA2 wild type (GluA2(Q) wt; -50 mV): 0.65 and 0.63 and 0.62 and 0.80 and 0.70 and 0.82 | Normalized conductance (Gnorm) GluA2 wild type (GluA2(Q) wt; -60 mV): 0.75 and 0.73 and 0.72 and 0.89 and 0.80 and 0.79 | Normalized conductance (Gnorm) GluA2 wild type (GluA2(Q) wt; -70 mV): 0.83 and 0.76 and 0.82 and 0.93 and 0.85 and 0.92 | Normalized conductance (Gnorm) GluA2 wild type (GluA2(Q) wt; -80 mV): 0.88 and 0.91 and 0.95 and 0.89 | Normalized conductance (Gnorm) GluA2 wild type (GluA2(Q) wt; -90 mV): 0.90 and 0.93 and 0.98 and 0.99 and 0.95 | Normalized conductance (Gnorm) GluA2 wild type (GluA2(Q) wt; -100 mV): 0.96 and 0.99 and 0.97 and 1.03 and 1.00 | Normalized current (Inorm) GluA2 wild type (GluA2(Q) wt; -100 mV): -1.00 | h, voltage dependency of block onset (GluA2(Q) wt; GluA2(Q) wt): −18.5 ± 0.7 mV | k, voltage dependency of block relief (GluA2(Q) wt; GluA2(Q) wt): 14.3 ± 0.6 mV | Kd (GluA2(Q) wt; GluA2(Q) wt, 30 µM internal Spm, 10 mM glutamate, read-out: Kd(0mV)): 5.4 ± 2.6 µM | k (GluA2(Q) wt; fit of Gnorm vs voltage, GluA2 wild type, single recordings): 16.05 and 14.65 and 13.61 and 14.56 and 11.91 and 14.81 | Normalized conductance (Gnorm) AMPA D611A + γ2 (GluA2 D611A + γ2; 0 mV): 0.81 and 0.75 and 0.86 and 0.99 and 0.85 | Normalized conductance (Gnorm) AMPA D611A + γ2 (GluA2 D611A + γ2; 10 mV): 0.83 and 0.76 and 0.89 and 0.84 | Normalized current (Inorm) AMPA D611A + γ2 (GluA2 D611A + γ2; 10 mV): 0.05 and 0.0569 and 0.06 and 0.0738 | Normalized conductance (Gnorm) AMPA D611A + γ2 (GluA2 D611A + γ2; 20 mV): 0.86 and 0.79 and 0.92 and 0.87 | Normalized current (Inorm) AMPA D611A + γ2 (GluA2 D611A + γ2; 20 mV): 0.15 and 0.14 and 0.17 | Normalized conductance (Gnorm) AMPA D611A + γ2 (GluA2 D611A + γ2; 30 mV): 0.92 and 0.81 and 0.94 and 0.90 | Normalized current (Inorm) AMPA D611A + γ2 (GluA2 D611A + γ2; 30 mV): 0.26 and 0.22 and 0.25 and 0.27 | Normalized conductance (Gnorm) AMPA D611A + γ2 (GluA2 D611A + γ2; 40 mV): 0.93 and 0.87 and 0.95 and 0.91 | Normalized current (Inorm) AMPA D611A + γ2 (GluA2 D611A + γ2; 40 mV): 0.36 and 0.33 and 0.32 and 0.37 and 0.35 | Normalized conductance (Gnorm) AMPA D611A + γ2 (GluA2 D611A + γ2; 50 mV): 0.97 and 0.91 and 0.99 and 0.92 and 0.95 | Normalized current (Inorm) AMPA D611A + γ2 (GluA2 D611A + γ2; 50 mV): 0.49 and 0.44 and 0.47 and 0.45 and 0.46 | Normalized conductance (Gnorm) AMPA D611A + γ2 (GluA2 D611A + γ2; 60 mV): 0.94 and 0.96 and 0.99 | Normalized current (Inorm) AMPA D611A + γ2 (GluA2 D611A + γ2; 60 mV): 0.57 and 0.55 and 0.56 | Normalized conductance (Gnorm) AMPA D611A + γ2 (GluA2 D611A + γ2; 70 mV): 0.98 and 1.00 and 0.92 and 0.99 and 0.97 | Normalized current (Inorm) AMPA D611A + γ2 (GluA2 D611A + γ2; 70 mV): 0.71 and 0.68 and 0.62 and 0.67 | Normalized conductance (Gnorm) AMPA D611A + γ2 (GluA2 D611A + γ2; 80 mV): 0.99 and 0.97 and 1.04 and 1.00 | Normalized current (Inorm) AMPA D611A + γ2 (GluA2 D611A + γ2; 80 mV): 0.82 and 0.76 and 0.81 and 0.78 and 0.79 | Normalized conductance (Gnorm) AMPA D611A + γ2 (GluA2 D611A + γ2; 90 mV): 1.00 and 0.88 and 0.98 and 0.95 | Normalized current (Inorm) AMPA D611A + γ2 (GluA2 D611A + γ2; 90 mV): 0.94 and 0.78 and 0.87 and 0.86 | Normalized conductance (Gnorm) AMPA D611A + γ2 (GluA2 D611A + γ2; 100 mV): 0.97 and 0.96 and 1.00 and 0.98 | Normalized current (Inorm) AMPA D611A + γ2 (GluA2 D611A + γ2; 100 mV): 1.02 and 0.95 and 0.99 | Normalized conductance (Gnorm) AMPA D611A + γ2 (GluA2 D611A + γ2; -10 mV): 0.83 and 0.80 and 0.82 and 0.89 | Normalized conductance (Gnorm) AMPA D611A + γ2 (GluA2 D611A + γ2; -20 mV): 0.81 and 0.87 and 0.82 and 0.91 and 0.85 | Normalized conductance (Gnorm) AMPA D611A + γ2 (GluA2 D611A + γ2; -30 mV): 0.82 and 0.87 and 0.93 and 0.91 and 0.88
